Experimental findings from ChEMBL document CHEMBL1201862, “PubChem BioAssay data set” (2004) are described below.

Holding throughout (test): growth of human tumour cells (NCI), 48 h
Assay [1] deals with 786-0.
For assay [2], the system named is PC-3.
Assay [3] has as its system UACC-62.
Assay [4] relates to CCRF-CEM.
The test system of assay [5] is HCT-116.
Assay [6] has as its system OVCAR-8.
For assay [7], the system named is MDA-MB-435.
For assay [8], the system named is RPMI-8226.
The test system of assay [9] is UO-31.
Assay [10] has as its system ACHN.
In assay [11] the test system is HT-29.
In assay [12] the test system is NCI-H460.
In assay [13] the test system is TK-10.
In assay [14] the test system is SNB-75.
The test system of assay [15] is MDA-N.
Assay [16] relates to HL-60.
Assay [17] has as its system EKVX.
The test system of assay [18] is MDA-MB-231.
Assay [19] deals with CAKI-1.
In assay [20] the test system is HOP-62.

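Cultured in 96-well plates, cells were exposed to test compound for 48 hours across five concentrations. GI50: concentration for 50% inhibition of growth.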 Active and inactive are the calls of the source. Rule as the data show it: active = GI50 up to about 1.1 µM and inactive = higher. A value given as a limit tells only on which side of the number the result lay.

As for `CC(Br)CN(CC(C)Br)c1ccc2c(c1)Cc1ccccc1-2` (stereo not given), the GI50 in [1] was 11.1 µM (inactive); in assay [2] it was 10.8 µM (inactive); in assay [3], 11.9 µM (inactive); in assay [4] it was 2.03 µM (inactive); in [5] it was 11.6 µM (inactive); in [6], 9.98 µM (inactive). The GI50 in [7] was 13.7 µM (inactive); in assay [8] it was 3.27 µM (inactive); in [9] it was 12.4 µM (inactive); in assay [10] it was 6.64 µM (inactive); in assay [11] it was 13 µM (inactive); in [12], 2.22 µM (inactive). Also, the GI50 in assay [13] is 12.3 µM (inactive); in assay [14], 12.2 µM (inactive); in assay [15] it was 15.2 µM (inactive); in assay [16] it was 1.73 µM (inactive); in assay [17], 13.8 µM (inactive); in [18] it was 13.9 µM (inactive). In addition, the GI50 is 9.2 µM (inactive) in assay [19] and 11.7 µM (inactive) in assay [20].
As for `CC(NCc1c(O)ccc2c(-c3ccccc3)cc(=O)oc12)C(=O)O` (stereo not given), the GI50 in [1], in assay [2], in [3], in [4], in assay [5] and in assay [6] was > 100 µM (inactive) each time. Moreover, the GI50 in [7], in assay [8], in assay [9], in assay [10], in assay [11] and in assay [12] was > 100 µM (inactive) each time. For the same molecule, the GI50 in assay [13], in assay [14], in assay [15], in [16], in [17] and in assay [18] was > 100 µM (inactive) throughout. In addition, the GI50 in assay [19] and in [20] was > 100 µM (inactive) throughout.
As for `CCOC(=O)C1=C(C)N(Cc2ccccc2)C2(O)C=CC(O)=C3C(=O)c4ccccc4C(=O)C312` (stereo not given), the GI50 in [1] was 13.4 µM (inactive); in assay [2], 19.2 µM (inactive); in assay [3], 14.7 µM (inactive); in [4], 8.61 µM (inactive); in assay [5], 10.2 µM (inactive); in assay [6], 19.1 µM (inactive). Moreover, the GI50 is 8.93 µM (inactive) in [7]; 9.42 µM (inactive) in assay [8]; 9.73 µM (inactive) in assay [9]; 17.4 µM (inactive) in assay [10]; 31.5 µM (inactive) in assay [11]; 11.3 µM (inactive) in assay [12]. Further, the GI50 was 18.5 µM (inactive) in assay [13]; 22.1 µM (inactive) in assay [14]; 6.37 µM (inactive) in [15]; 15.1 µM (inactive) in assay [16]; 16.4 µM (inactive) in assay [17]; 15.3 µM (inactive) in [18]. Further, the GI50 in [19] was 12.1 µM (inactive); in assay [20], 14.2 µM (inactive).
For the molecule `Brc1cc2nn(-c3ccccc3)nc2c2nonc12`, the GI50 in assay [1], in assay [2], in assay [3], in assay [4], in [5] and in [6] was > 100 µM (inactive) in each case. The GI50 in [7], in assay [8], in assay [9], in assay [10], in [11] and in [12] was > 100 µM (inactive) in each case. Also, the GI50 in assay [13], in assay [14], in assay [15], in [16], in [17] and in assay [18] was > 100 µM (inactive) each time. For the same molecule, the GI50 in assay [19] and in assay [20] was > 100 µM (inactive) in each case.
For `CC1=C(C(=O)Nc2ccccc2)C(c2ccc(N(C)C)cc2)C(C(=O)Nc2ccccc2)=C(C)N1`, the GI50 in assay [1] was 29.6 µM (inactive); in assay [2], 4.08 µM (inactive); in assay [3], 0.2 µM (active); in [4], 3.94 µM (inactive); in [5], 4.72 µM (inactive); in assay [6], 11.9 µM (inactive). The GI50 was 0.804 µM (active) in [7]; 3.13 µM (inactive) in [8]; 2.37 µM (inactive) in assay [9]; 0.494 µM (active) in assay [10]; 3.72 µM (inactive) in assay [11]; 1.43 µM (inactive) in assay [12]. Further, the GI50 in assay [13] was 39.4 µM (inactive); in assay [14], 35.6 µM (inactive); in assay [15], 1.75 µM (inactive); in [16], 5.3 µM (inactive); in assay [17], 62.8 µM (inactive); in [18], 29.1 µM (inactive). For the same molecule, the results for the GI50 in assay [19] and in assay [20] were 25.3 µM (inactive) and 5 µM (inactive), respectively.
`O=c1oc2ccc3ccccc3c2cc1-c1cn2ccccc2n1`: the GI50 in assay [1] was 37.2 µM (inactive); in assay [2], > 100 µM (inactive); in assay [3] it was > 100 µM (inactive); in assay [4] it was > 100 µM (inactive); in assay [5], 14.9 µM (inactive); in assay [6], 51.3 µM (inactive). The GI50 in assay [7] is > 100 µM (inactive); in assay [8], > 100 µM (inactive); in assay [9], 20 µM (inactive); in assay [10], 22.6 µM (inactive); in assay [11], 26.5 µM (inactive); in [12] it was > 100 µM (inactive). Besides, the GI50 was 67.8 µM (inactive) in assay [13]; > 100 µM (inactive) in assay [14]; > 100 µM (inactive) in assay [15]; > 100 µM (inactive) in [16]; 30.5 µM (inactive) in [17]; 24.2 µM (inactive) in assay [18]. In addition, the values for the GI50 in assay [19] and in [20] were 11.8 µM (inactive) and 52.6 µM (inactive), respectively.
Regarding `COc1cc(N(CCC#N)CCC#N)ccc1C(=N/NC(=O)c1cc(Br)ccc1O)/N=N/c1ccc(C)cc1`, the GI50 in [1] is 32.1 µM (inactive); in assay [2] it was 20.6 µM (inactive); in assay [3], 18.5 µM (inactive); in assay [4], 4.5 µM (inactive); in [5] it was 16.1 µM (inactive); in assay [6], 22.8 µM (inactive). For the same molecule, the GI50 was 44.9 µM (inactive) in assay [7]; 22.2 µM (inactive) in assay [8]; 18.5 µM (inactive) in [9]; 27 µM (inactive) in assay [10]; 32.6 µM (inactive) in [11]; 15.5 µM (inactive) in assay [12]. The GI50 in assay [13] is 23.9 µM (inactive); in assay [14] it was 22.6 µM (inactive); in assay [15], 30.9 µM (inactive); in assay [16], 15.4 µM (inactive); in [17] it was 21.7 µM (inactive); in assay [18] it was 15.5 µM (inactive). For the same molecule, the GI50 in [19] is 27.9 µM (inactive); in assay [20], 20.2 µM (inactive).
